The source of these data is patent publication US20080269348A1, “Novel Arylbicyclo[3.1.0]Hexylamines And Methods And Compositions For Their Preparation And Use” (priority 2006, published 2008).

One test deals with T1, serotonin (5-HT) uptake (Rattus norvegicus, UniProt P31652).
T1 construct: synaptosomal preparations were made from either whole brain (5-HT), striatum (DA) or hypothalamus (NE); from tissue; host or cells: rat whole brain synaptosomes
Briefly: biochemical. The note with it: read-out: Uptake Inhibition % at 500 nM 5-HT. As for the experimental part:
(§1) The effects of arylbicyclo[3.1.0]hexylamines of the invention for inhibiting transport of norepinephrine (NE) and/or dopamine (DA) and/or serotonin (5-HT) were evaluated using preparations of synaptosomes from different regions of the rat brain according to previously-reported techniques.
(§2) Whole brains were obtained from normal rats, and synaptosomal preparations were made from either whole brain (5-HT), striatum (DA) or hypothalamus (NE) by gentle disruption in 10 volumes (w/v) of 0.32 M sucrose (0-4° C.) using a Teflon-glass homogenizer. The homogenate was then centrifuged at 1000×g for 10 min. The supernatant was retained and centrifuged at 23000 g for 20 min. The resulting pellet was gently resuspended in 200 volumes of 0.32 M sucrose (0-4° C.) using a teflon-glass homogenizer. Aliquots (250 μL) of this preparation were added to tubes, along with 0.2 μCi/mL of [^3H]5-HT, [^3H]DA, or [^3H]NE, 200 μL of selected 1-arylbicyclo[3.1.0]hexanamine test compounds (to yield final concentrations of 500 nM) and 1 mL of Krebs-Ringer bicarbonate buffer (pH 7.4). […] At the end of this period, the assay was terminated by rapid filtration over Whatman GF/C glass fiber filters. The filters were rinsed 3 times with 4 ml of Krebs-Ringer bicarbonate buffer (0-4° C.), and the radioactivity retained on the filters was measured by liquid scintillation spectrometry.

The target in a further test is T2, dopamine (DA) uptake (Rattus norvegicus, UniProt P23977).
T2 construct: synaptosomal preparations were made from either whole brain (5-HT), striatum (DA) or hypothalamus (NE); from tissue; host or cells: rat striatum synaptosomes
Briefly: biochemical. The note with it: read-out: Uptake Inhibition % at 500 nM DA. The procedure:
as §1, §2

Test [1] deals with T3, norepinephrine (NE) uptake (Rattus norvegicus, UniProt Q63380).
T3 construct: synaptosomal preparations were made from either whole brain (5-HT), striatum (DA) or hypothalamus (NE); from tissue; host or cells: rat hypothalamus synaptosomes
The test can be described thus: Inhibition of [3H]NE uptake in rat hypothalamus synaptosomes. The class given is biochemical. The note with it: 500 nM, 20 min at 37° C. As for the experimental part:
as §1, §2

T1 sequence (P31652 whole entry): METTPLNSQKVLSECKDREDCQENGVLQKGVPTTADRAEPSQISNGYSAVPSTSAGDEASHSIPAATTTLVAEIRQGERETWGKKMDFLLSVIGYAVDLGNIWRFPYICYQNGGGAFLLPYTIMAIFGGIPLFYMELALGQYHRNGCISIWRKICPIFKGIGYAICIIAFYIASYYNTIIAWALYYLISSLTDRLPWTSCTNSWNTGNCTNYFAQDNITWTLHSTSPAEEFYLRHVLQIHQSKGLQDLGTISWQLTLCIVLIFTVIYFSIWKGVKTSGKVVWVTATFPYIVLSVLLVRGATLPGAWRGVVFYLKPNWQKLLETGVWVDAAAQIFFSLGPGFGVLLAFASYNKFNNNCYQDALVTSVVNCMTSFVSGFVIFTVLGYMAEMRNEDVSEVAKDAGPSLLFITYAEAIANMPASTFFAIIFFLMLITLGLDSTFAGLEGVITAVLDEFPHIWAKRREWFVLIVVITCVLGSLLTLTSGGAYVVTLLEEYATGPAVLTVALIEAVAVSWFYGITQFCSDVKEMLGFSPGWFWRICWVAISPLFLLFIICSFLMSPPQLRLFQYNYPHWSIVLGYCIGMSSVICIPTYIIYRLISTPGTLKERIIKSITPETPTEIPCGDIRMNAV
T2 sequence (P23977 whole entry): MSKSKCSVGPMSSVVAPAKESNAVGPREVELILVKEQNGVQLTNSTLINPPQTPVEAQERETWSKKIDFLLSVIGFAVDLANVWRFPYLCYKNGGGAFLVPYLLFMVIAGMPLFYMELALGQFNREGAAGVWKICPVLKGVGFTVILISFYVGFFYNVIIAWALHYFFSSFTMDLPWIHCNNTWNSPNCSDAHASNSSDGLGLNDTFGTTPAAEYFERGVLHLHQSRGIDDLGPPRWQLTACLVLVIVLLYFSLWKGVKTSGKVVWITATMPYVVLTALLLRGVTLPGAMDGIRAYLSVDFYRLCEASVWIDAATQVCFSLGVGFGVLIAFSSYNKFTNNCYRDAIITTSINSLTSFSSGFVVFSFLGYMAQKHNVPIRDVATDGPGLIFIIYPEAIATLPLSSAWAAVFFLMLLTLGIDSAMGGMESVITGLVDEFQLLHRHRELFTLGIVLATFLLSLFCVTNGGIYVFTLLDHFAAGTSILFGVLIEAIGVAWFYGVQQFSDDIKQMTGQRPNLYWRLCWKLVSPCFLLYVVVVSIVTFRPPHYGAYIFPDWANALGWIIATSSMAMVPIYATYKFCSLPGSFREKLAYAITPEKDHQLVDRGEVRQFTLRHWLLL
T3 sequence (Q63380 1-617): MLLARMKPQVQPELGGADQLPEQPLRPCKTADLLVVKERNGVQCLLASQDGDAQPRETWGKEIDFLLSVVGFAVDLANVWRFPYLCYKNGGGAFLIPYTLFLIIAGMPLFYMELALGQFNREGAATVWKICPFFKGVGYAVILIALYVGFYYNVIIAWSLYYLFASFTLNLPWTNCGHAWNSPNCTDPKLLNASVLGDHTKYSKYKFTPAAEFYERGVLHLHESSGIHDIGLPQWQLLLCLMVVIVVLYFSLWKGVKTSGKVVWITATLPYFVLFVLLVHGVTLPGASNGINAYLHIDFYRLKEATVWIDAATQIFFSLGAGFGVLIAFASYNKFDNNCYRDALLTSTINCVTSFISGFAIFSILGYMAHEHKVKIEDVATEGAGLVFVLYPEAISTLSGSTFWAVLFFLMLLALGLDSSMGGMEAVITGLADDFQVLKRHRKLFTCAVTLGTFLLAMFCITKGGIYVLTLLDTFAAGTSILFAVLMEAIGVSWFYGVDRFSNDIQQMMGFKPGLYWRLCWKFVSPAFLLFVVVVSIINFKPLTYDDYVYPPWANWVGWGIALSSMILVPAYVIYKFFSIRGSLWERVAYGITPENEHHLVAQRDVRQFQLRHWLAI

The term inhibition denotes the drop in the measured response relative to a control, in per cent. Consider `NC1C[C@H]2C[C@]2(c2cccc3ccccc23)C1` (stereo partly drawn) [5-p-tolylbicydo[3.1.0]hexan-2-amine], for which the inhibition at 0.5 µM at serotonin (5-HT) uptake is 74%; on dopamine (DA) uptake, 39%; in test [1], 42%.

As for `NC1C[C@H]2C[C@]2(c2ccc(Cl)c(Cl)c2)C1` (stereo partly drawn), the inhibition at 0.5 µM at serotonin (5-HT) uptake stood at 75%; on dopamine (DA) uptake, 83%; in test [1], 59%.
